Assay results reported in PubChem BioAssay AID652069 (The Scripps Research Institute Molecular Screening Center, 2013).
Active and inactive are the calls of the source.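 How the source made its calls: active means growth ratio of SRC-3 knockout over parental cells of 1.2 or more, reached at 10 µM or lower; inactive means the rest.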

Test system: HeLa SRC-3 KO vs WT growth ratio, MTT, 5 d
Assay: SRC-3 dependent HeLa growth inhibition selectivity, late-stage follow-up, selectivity assay for SRC-1/SRC-3 inhibitor project, cell-based, zinc finger nuclease knockout, MTT (AID 652069)
Conditions: at 10 µM (top of the series)

Row | SMILES | KO/WT growth ratio, higher = selective
1 | Cc1cc(/C=C2\Cc3ccccc3C2=O)c(C)n1-c1ccccc1 | 1.01 (inactive)
2 | CC(=O)/C(N=Nc1ccc2c(c1)OCCO2)=C(/C)O | 1.02 (inactive)
3 | O=C(Nc1cccnc1)c1ccc(C(=O)Nc2cccnc2)cc1 | 1.07 (inactive)
4 | O=C(CCl)N1N=C(c2ccco2)CC1c1ccco1 (stereo unspecified) | 1.42
5 | Cc1ccc(OCC(=O)c2cc(C)n(-c3ccccc3)c2C)c([N+](=O)[O-])n1 | 0.934 (inactive)
6 | O=C(CCl)NC(Cc1ccccc1)c1ccccc1 (stereo unspecified) | 1.07 (inactive)
7 | O=[N+]([O-])c1cccc2c1ccc1ncccc12 | 1.09 (inactive)
8 | CCOc1ccc(/C=C2\SC(=S)N(CCCC(=O)NCCCN3CCOCC3)C2=O)cc1 | 1.03 (inactive)
9 | O=C(CCl)N1N=C(c2ccco2)CC1c1cccs1 (stereo unspecified) | 2.05
10 | O=C(CCCc1nc(-c2ccccc2Cl)no1)NC1CCCC1 | 1.06 (inactive)
11 | O=C1CCC2S/C(=C/Nc3ccc(C(F)(F)F)cc3)C(=O)N12 (stereo unspecified) | 1.02 (inactive)
12 | CCc1ccc(/C=C2\SC(=S)N(CCCC(=O)NCCCN3CCOCC3)C2=O)cc1 | 0.974 (inactive)
13 | Cc1c(Cl)cccc1N=c1c([N+](=O)[O-])nn(-c2ccc3c(c2)OCCO3)n1O | 1.03 (inactive)
14 | COc1cc2c(cc1OC)C(NC(=O)C(F)(F)F)CNC2=O (stereo unspecified) | 1.47
15 | O=[N+]([O-])c1nn(-c2ccc3c(c2)OCCO3)n(O)c1=Nc1ccc(Cl)cc1 | 0.995 (inactive)
16 | CC(C)N(c1ccccc1)c1ccc(NC(=O)CCl)cc1 | 1.07 (inactive)
17 | NC(=O)c1sc2nc3c(c(-c4ccco4)c2c1N)CCC3 | 1.23
18 | Cc1c(/C(O)=C2/C(=O)C(=O)N(Cc3cccnc3)C2c2ccccn2)cnn1-c1ccccc1 (stereo unspecified) | 0.966 (inactive)
19 | Cc1ccc(N=c2c([N+](=O)[O-])nn(-c3ccc4c(c3)OCCO4)n2O)c(Cl)c1 | 1.06 (inactive)
20 | CC(=O)N1CCN(c2ncnc3ccccc23)CC1 | 0.988 (inactive)
21 | S=C(Nc1ccccc1)Nc1ccc(OCc2ccc(Cl)cc2Cl)cc1 | 1.05 (inactive)
22 | Cc1nn(CC(=O)N2CCN(c3cccc(C(F)(F)F)c3)CC2)c(=O)c2cccn12 | 1.09 (inactive)
23 | Cc1ccc(/C=C2/SC(=S)N(CCCC(=O)Nc3ccc(O)cc3)C2=O)cc1 | 1.11 (inactive)
24 | O=C(Nc1nc2ccccc2s1)C1c2ccccc2Oc2ccccc21 | 1.05 (inactive)
25 | O=[N+]([O-])c1nn(-c2ccc3c(c2)OCCO3)n(O)c1=Nc1ccccc1 | 0.918 (inactive)
26 | CN(C)c1ccc(CNC(=O)CCNS(=O)(=O)c2cc(Br)cnc2N)cc1 | 1.04 (inactive)

Row | SMILES | KO/WT growth ratio, higher = selective
27 | S=C(c1ccc(-c2ccccc2)cc1)N1CCOCC1 | 0.918 (inactive)
28 | c1ccc(-c2nnc(-c3ccccn3)nc2NC2CCCCC2)cc1 | 1.01 (inactive)
29 | Cc1ccc(N=c2c([N+](=O)[O-])nn(-c3ccc4c(c3)OCCO4)n2O)cc1F | 1.02 (inactive)
30 | NS(=O)(=O)c1ccc(Nc2nc(-c3cccnc3)cs2)cc1 | 0.928 (inactive)
31 | Cc1ccc(OCC(=O)c2cc(C)n(Cc3cccs3)c2C)c([N+](=O)[O-])n1 | 0.969 (inactive)
32 | Cc1cc(C)cc(N=c2c([N+](=O)[O-])nn(-c3ccc4c(c3)OCCO4)n2O)c1 | 0.985 (inactive)
33 | CCOC(=O)C(=CNc1ccc(NC2=NCC(C)S2)cc1)C(=O)OCC (stereo unspecified) | 1 (inactive)
34 | NC(=S)NN=C1CCSc2ccc(Cl)cc21 | 1.09 (inactive)
35 | Cc1cc(N=c2c([N+](=O)[O-])nn(-c3ccc4c(c3)OCCO4)n2O)ccc1Br | 0.974 (inactive)
36 | Cn1nc(C(F)(F)F)c(C#N)c1N1CCN(c2ccc(F)cc2)CC1 | 0.976 (inactive)
37 | COc1cc(N=c2c([N+](=O)[O-])nn(-c3ccc4c(c3)OCCO4)n2O)cc(OC)c1 | 1.09 (inactive)
38 | O=C(COC(=O)c1ccc[nH]c1=O)Nc1ccc(N2CCCCC2)cc1 | 0.954 (inactive)
39 | CC(C)n1c(SCC(=O)Nc2nc3c(s2)CCCC3)nc2c1c(=O)n(C)c(=O)n2C | 1.03 (inactive)
40 | COc1ccc(/C=C2/SC(=S)N(CCC(=O)O)C2=O)cc1 | 1.07 (inactive)
41 | O=C(Nc1nc(-c2ccccn2)cs1)c1cccc(S(=O)(=O)N2CCOCC2)c1 | 1.23
42 | Cc1ccc(/C=C2\SC(=S)N(CCCC(=O)NC3CCCC3)C2=O)cc1 | 0.962 (inactive)
43 | CCc1ccc(N=c2c([N+](=O)[O-])nn(-c3ccc4c(c3)OCCO4)n2O)cc1 | 0.982 (inactive)
44 | O=C(O)CN1C(=O)/C(=C\c2ccccc2OCc2ccc(Cl)cc2Cl)SC1=S | 1.02 (inactive)
45 | Cc1cccc(NC(=O)c2cc(Cl)ccc2[N+](=O)[O-])c1 | 1.09 (inactive)
46 | O=C(NC(NC(=S)N1CCOCC1)C(Cl)(Cl)Cl)c1ccc(Cl)cc1 (stereo unspecified) | 1.05 (inactive)
47 | CCCCC(=O)Nc1cccn2ncnc12 | 0.954 (inactive)
48 | Cc1c(CC(=O)NCCCC(=O)O)c(=O)oc2cc3c(cc12)CCC(C)(C)O3 | 1.04 (inactive)
49 | COC(=O)c1c(C)n(-c2ccc(OC)cc2)c2ccc(O)cc12 | 1.01 (inactive)
50 | COc1cc(C2c3cc4c(cc3C(OC3OC5COC(c6cccs6)OC5C(O)C3O)C3COC(=O)C23)OCO4)cc(OC)c1O (stereo unspecified) | 1.2
51 | CCC(=O)N1CCN(c2ccnc3cc(Cl)ccc23)CC1 | 1.11 (inactive)
